# Source: patent US9550811B2, “Peptide scaffold design” (BIONOR IMMUNO AS, priority 2010, dated 2017)
# Several values for one entry are separate records, joined by “and”; a condition that tells them apart may be missing. Identical values can stand only once. Like-named read-outs stand apart in the source and are kept apart here.
# Assays:
# [1] = system: human PBMCs; type: cell-based
# [2] = system: human PBMCs; assay: Extracellular staining for biotinylated peptides (flow cytometry); type: cell-based
# Method: (§1) 96-well U-bottom polystyrene plates (NUNC, cat no: 163320) were used for staining of human PBMCs. Briefly, 8 ul of N- or C-terminally biotinylated peptides according to table 1 or table 2 (i.e. 5 mM, 2.5 mM & 1.25 mM tested for each peptide; all peptides manufactured by Schafer) were incubated at 37° C. for 2 h with 40 ul of PBMC (12.5×10^6 cells/ml) from blood donors. Cells were then washed 3× with 150 ul of Cellwash (BD, cat no: 349524), then stained with Streptavidin-APC (BD, cat no: 554067) & Anti-hCD11c (eBioscience, cat no: 12-0116) according to manufacturer at 4° C. for 30 min aiming to visualize biotinylated peptides & dendritic cells, respectively. Cells were then washed 3× with 150 ul of Cellwash (BD, cat no: 349524), followed by resuspension in staining buffer (BD, cat no: 554656) before flow cytometry. Dendritic cells were gated as CD11c+ events outside lymphocyte region (i.e. higher FSC & SSC signals than lymphocytes). 200 000 total cells were acquired on a FACSCanto II flow cytometer with HTS loader, and histograms for both total cells & dendritic cells with respect to peptide-fluorescence (i.e. GeoMean) were prepared.
# [3] = system: DC-cells; assay: Cell penetration assay: staining for biotinylated peptides, dendritic cells gated as CD11c+; type: cell-based, human; details: low concentration of peptides (208 uM)
# Method: A set of peptides were biotinylated on N-terminal, and different combinations of aminoacids, with respect to length and type, were added to the sequence box X^1, X^3 and X^4 in the peptides as illustrated by the diagram below. The peptides were tested on cells grown from one individual blood donor.
# as §1, with “for each peptide) were incubated” for “for each peptide; all peptides manufactured by Schafer) were incubated”, “no: 349524), followed by resuspension of each cell pellet with 100 ul of Trypsin-EDTA (Sigma, cat no: T4424), then incubated at 37° C. for 5 min. Trypsinated cells were then washed 3× with 150 ul of Cellwash (BD, cat no: 349524), followed by resuspension with BD Cytofix/Cytoperm™ plus (BD, cat no: 554715), then incubated at 4° C. for 20 min according to manufacturer. Cells were then washed 2× with 150 ul PermWash (BD, cat no: 554715). Cells were then stained” for “no: 349524), then stained”, “150 ul PermWash, followed by” for “150 ul of Cellwash (BD, cat no: 349524), followed by”
# As shown in table 4 the peptides according to the invention had the ability to allocate through the cell membrane.
# [4] = system: PBMC samples from HCV patients; assay: Human IFN-gamma cytotoxic T-cell (CTL) response by ELISPOT assay; type: cell-based
# Method: Human IFN-Gamma Cytotoxic T-Cell (CTL) Response by ELISPOT Assay
# Briefly, at day 1, PBMC samples from HCV patients were incubated in flasks (430 000 PBMCs/cm2) for 2 h at 37° C., 5% CO2 in covering amount of culture media (RPMI 1640 Fisher Scientific; Cat No. PAAE15-039 supplemented with L-Glutamine, (MedProbe Cat. No. 13E17-605E, 10% Foetal Bovine serum (FBS), Fisher Scientific Cat. No. A15-101) and Penicillin/Streptomycin, (Fisher Acientific Cat. No. P11-010) in order to allow adherence of monocytes. Non-adherent cells were isolated, washed, and frozen in 10% V/V DMSO in FBS until further usage. Adherent cells were carefully washed with culture media, followed by incubation at 37° C. until day 3 in culture media containing 2 μg/ml final concentration of hrGM-CSF (Xiamen amoytop biotech co, cat no: 3004.9090.90) & 1 μg/ml hrIL-4 (Invitrogen, Cat no: PHC0043), and this procedure was then repeated at day 6. At day 7, cultured dendritic cells (5 000-10 000 per well) were added to ELISPOT (Millipore multiscreen HTS) plates coated with 0.5 μg/well anti-human γ Interferon together with thawed autologous non-adherent cells (200 000 per well), antigen samples (1-8 ug/ml final concentration for peptide antigens; 5 ug/ml final concentration for Concanavalin A (Sigma, Cat no: C7275) or PHA (Sigma, Cat no: L2769)) & anti-Anergy antibodies (0.03-0.05 ug/ml final concentration for both anti-PD-1 (eBioscience, cat no: 16-9989-82) & anti-PD-L1 (eBioscience, cat no: 16-5983-82)). Plates were incubated overnight and spots were developed according to manufacturer. Spots were read on ELISPOT reader (CTL-ImmunoSpot® S5 UV Analyzer).
# [5] = system: HLA-B40; assay: REVEAL binding assay; details: score as percentage of the signal generated by the positive control peptide
# Method in brief: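 Each candidate ninemer is assessed for binding and stabilizing the allele's MHC–peptide complex, detected as native conformation. Results are given relative to a positive control epitope, and an intermediate binder serves as a performance check.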
# [6] = system: HLA-A29; assay: REVEAL binding assay; details: score as percentage of the signal generated by the positive control peptide
# From the text: (§3) HLA-A1, HLA-A2, HLA-A3, HLA-A11, HLA-A24, HLA-A29, HLA-B7, HLA-B8, HLA-B14, HLA-B15, HLA-B27, HLA-B35, HLA-B40.
# (§4) The REVEAL™ binding assay determined the ability of each candidate peptide to bind to one or more MHC class I alleles and stabilizing the MHC-peptide complex. […] Detection is based on the presence or absence of the native conformation of the MHC-peptide complex. Each peptide is given a score relative to the positive control peptide, which is a known T cell epitope.
# [7] = system: HLA-A1; assay: REVEAL binding assay; details: score as percentage of the signal generated by the positive control peptide
# Method: Binding properties to HLA for the ninemers listed in table 6 were tested for the following HLA-classes:
# as §3, §4
# [8] = system: HLA-B35; assay: REVEAL binding assay; details: score as percentage of the signal generated by the positive control peptide
# [9] = target: HLA-A11 (Homo sapiens, UniProt P04439, A114D/F33Y/S129P); assay: REVEAL binding assay; details: score as percentage of the signal generated by the positive control peptide
# Method in brief: (§2)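 Synthetic nonamer peptides were tested for their ability to bind and stabilize MHC class I–peptide complexes, detected by the native conformation of the complex. Each peptide is scored relative to a positive-control known T-cell epitope.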
# [10] = target: HLA-B27 (Homo sapiens, UniProt P01889, D138H/D201E/E176V/E204Q/G107R/H137Y/K202T/N104T/N87E/Q56L/Q94K/R106L/R155S/R180L/S101D/S121N/S48T/Y140D/Y33H/Y91C); assay: REVEAL binding assay; details: score as percentage of the signal generated by the positive control peptide
# Method in brief: as §2
# [11] = target: HLA-B7 (Homo sapiens, UniProt P01889); assay: REVEAL binding assay; details: score as percentage of the signal generated by the positive control peptide
# Sequence of HLA-B7 (P61769 21-119): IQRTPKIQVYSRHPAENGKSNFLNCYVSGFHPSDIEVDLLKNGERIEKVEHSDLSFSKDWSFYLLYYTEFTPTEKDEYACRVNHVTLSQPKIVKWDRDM
# Sequence of HLA-B7 (P01889 25-299): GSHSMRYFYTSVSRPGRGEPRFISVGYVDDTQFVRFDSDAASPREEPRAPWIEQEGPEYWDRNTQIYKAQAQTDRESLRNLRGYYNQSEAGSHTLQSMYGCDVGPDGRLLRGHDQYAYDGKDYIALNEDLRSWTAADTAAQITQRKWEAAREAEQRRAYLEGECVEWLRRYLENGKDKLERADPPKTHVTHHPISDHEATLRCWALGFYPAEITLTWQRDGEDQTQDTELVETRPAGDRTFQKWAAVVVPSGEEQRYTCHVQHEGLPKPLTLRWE
# Method in brief: as §2
# [12] = target: HLA-A2 (Homo sapiens, UniProt P04439, D140Y/D185E/D98H/E176V/E277Q/G131W/G231S/I119V/I121R/I166T/I218V/N151K/N90K/P208A/P217A/Q86G/Q94H/R138H/R169H); assay: REVEAL binding assay; details: score as percentage of the signal generated by the positive control peptide
# Method in brief: as §2
# [13] = target: HLA-A3 (Homo sapiens, UniProt P04439); assay: REVEAL binding assay; details: score as percentage of the signal generated by the positive control peptide
# Sequence of HLA-A3 (P04439 25-299): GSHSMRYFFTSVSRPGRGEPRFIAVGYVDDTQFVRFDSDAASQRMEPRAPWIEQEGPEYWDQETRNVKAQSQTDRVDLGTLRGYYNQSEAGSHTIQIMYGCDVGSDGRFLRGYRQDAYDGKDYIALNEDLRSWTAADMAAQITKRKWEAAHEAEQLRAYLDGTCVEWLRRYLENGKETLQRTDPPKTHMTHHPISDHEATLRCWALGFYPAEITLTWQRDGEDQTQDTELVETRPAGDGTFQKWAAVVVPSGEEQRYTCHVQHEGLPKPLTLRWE
# Sequence of HLA-A3 (P61769 21-119, further chain): as the sequence (P61769 21-119) above
# Method in brief: as §2
# [14] = system: HLA-B15; assay: REVEAL binding assay; details: score as percentage of the signal generated by the positive control peptide
# From the text: as §3, §4
# [15] = system: HLA-B8; assay: REVEAL binding assay; details: score as percentage of the signal generated by the positive control peptide
# [16] = system: HLA-A24; assay: REVEAL binding assay; details: score as percentage of the signal generated by the positive control peptide
# [17] = system: HLA-B14; assay: REVEAL binding assay; details: score as percentage of the signal generated by the positive control peptide
# [18] = Example 4, negative control = 1.00
substance,measurement,setting,value
RRGYIPLVGAPLGRRRVARALAHGVRV [compound 9],"Intracellular staining, median",[1],3.25
same,"Extracellular staining, median",[2],2.06
"RRGPVVHLTLRRRGQAGDDFS [compound 2, Neg control in scaffold, reference compound]","Intracellular staining, median",[1],4.12
same,"Extracellular staining, median",[2],1.77
WGYIPLVGAPLGRRVARALAHGVRV [compound 19],Results on DC-cells (geomean peptide-fluorescence),[3]; BC 16,8417
same,Results on DC-cells (geomean peptide-fluorescence),[3]; BC43,6372
same,"Intracellular staining, median",[1],17.41
same,"Extracellular staining, median",[2],1.37
RRSRNLGKVIDTLTCRRLMGYIPLVGA [compound 13],"Intracellular staining, median",[1],21.43
same,"Extracellular staining, median",[2],16.80
GYIPLVGAPLGGVARALAHGVRV [compound 5],"Intracellular staining, median",[1],1.84
same,"Extracellular staining, median",[2],2.08
"PVVHLTLRQAGDDFSR [N-biotin, reference compound]",Results on DC-cells (geomean peptide-fluorescence),[3]; BC 16,3591 and 2271
same,Results on DC-cells (geomean peptide-fluorescence),"[3]; BC 16, listed as n-biotin",3745
same,Results on DC-cells (geomean peptide-fluorescence),[3]; BC43,3631
same,Results on DC-cells (geomean peptide-fluorescence),"[3]; BC43, listed as n-biotin",1967
same,"Intracellular staining, median",[1],1.00
same,"Extracellular staining, median",[2]; [18],1.00
RGYIPLVGAPLGRRRVARALAHGVRVR [compound 6],"Intracellular staining, median",[1],5.35
same,"Extracellular staining, median",[2],2.20
"Concanavalin A [ConA, reference compound]",IFN-g ELISPOT (T-cell spots),[4]; Patient A (HCV patient),5090 and 5035
same,IFN-g ELISPOT (T-cell spots),[4]; Patient B (HCV patient),2605 and 2725
same,IFN-g ELISPOT (T-cell spots),[4]; Patient C (HCV patient),1355 and 700
same,IFN-g ELISPOT (T-cell spots),[4]; Patient D (HCV patient),529 and 512
"GGGYIPLVGAPLGGGVARALAHGVRV [compound 11, HCV (Not scaffold)]","Intracellular staining, median",[1],2.01
same,"Extracellular staining, median",[2],2.62
RRGYIPLVGAPLGRRVARALAHGVRV [compound 8],"Intracellular staining, median",[1],6.92
same,"Extracellular staining, median",[2],3.06
"EEGYIPLVGAPLGEEVARALAHGVRV [compound 10, HCV (Not scaffold)]","Intracellular staining, median",[1],1.16
same,"Extracellular staining, median",[2],1.95
"RQIKIWFQNRRMKWKK [P-biotin, reference compound]",Results on DC-cells (geomean peptide-fluorescence),[3]; BC43,26212 and 33545
same,"Intracellular staining, median",[1],2.73
same,"Extracellular staining, median",[2]; [18],9.15
RNLGKVIDT,"REVEAL binding score, HLA-type B40",[5],48.14%
same,"REVEAL binding score, HLA-type A29",[6],10.18%
same,"REVEAL binding score, HLA-type A1",[7],18.90%
same,"REVEAL binding score, HLA-type B35",[8],4.40%
same,"REVEAL binding score, HLA-type A11",[9],6.22%
same,"REVEAL binding score, HLA-type B27",[10],2.73%
same,"REVEAL binding score, HLA-type B7",[11],2.42%
same,"REVEAL binding score, HLA-type A2",[12],6.42%
same,"REVEAL binding score, HLA-type A3",[13],3.15%
same,"REVEAL binding score, HLA-type B15",[14],11.79%
same,"REVEAL binding score, HLA-type B8",[15],13.80%
same,"REVEAL binding score, HLA-type A24",[16],1.04%
same,"REVEAL binding score, HLA-type B14",[17],0.61%
ARALAHGVR,"REVEAL binding score, HLA-type B40",[5],50.23%
same,"REVEAL binding score, HLA-type A29",[6],31.96%
same,"REVEAL binding score, HLA-type A1",[7],20.62%
same,"REVEAL binding score, HLA-type B35",[8],2.45%
same,"REVEAL binding score, HLA-type A11",[9],3.83%
same,"REVEAL binding score, HLA-type B27",[10],3.55%
same,"REVEAL binding score, HLA-type B7",[11],4.70%
same,"REVEAL binding score, HLA-type A2",[12],6.72%
same,"REVEAL binding score, HLA-type A3",[13],2.35%
same,"REVEAL binding score, HLA-type B15",[14],13.58%
same,"REVEAL binding score, HLA-type B8",[15],18.91%
same,"REVEAL binding score, HLA-type A24",[16],1.15%
same,"REVEAL binding score, HLA-type B14",[17],1.10%
NIPGSTYSL,"REVEAL binding score, HLA-type B40",[5],37.01%
same,"REVEAL binding score, HLA-type A29",[6],31.99%
same,"REVEAL binding score, HLA-type A1",[7],8.41%
same,"REVEAL binding score, HLA-type B35",[8],4.71%
same,"REVEAL binding score, HLA-type A11",[9],3.20%
same,"REVEAL binding score, HLA-type B27",[10],2.29%
same,"REVEAL binding score, HLA-type B7",[11],4.80%
same,"REVEAL binding score, HLA-type A2",[12],5.71%
same,"REVEAL binding score, HLA-type A3",[13],3.98%
same,"REVEAL binding score, HLA-type B15",[14],4.46%
same,"REVEAL binding score, HLA-type B8",[15],7.66%
same,"REVEAL binding score, HLA-type A24",[16],8.50%
same,"REVEAL binding score, HLA-type B14",[17],0.46%
RRGGGQIVGGVYLLPRRGPRLGVRATR [compound 14],"Intracellular staining, median",[1],4.81
same,"Extracellular staining, median",[2],17.00
RGYLPAVGAPIGRRRVIRVIAHGLRLR [compound 7],"Intracellular staining, median",[1],11.59
same,"Extracellular staining, median",[2],29.42
RRIRNLGRVIETLTLZGYIPLIGARRIRNLGRVIETLTLZGYIPLIGAR [compound 20],"Intracellular staining, median",[1],13.25
same,"Extracellular staining, median",[2],126.5
